Columns and labels:
[1] = tested on: Blumeria graminis f. sp. tritici (Erysiphe graminis f. sp. tritici); assay: Blumeria graminis f. sp. tritici / wheat / leaf disc preventative (powdery mildew on wheat); format: in vivo; conditions: foliar, wheat leaf segments cv. Kanzler, inoculated 1 day after application, assessed 6-8 days after application, read-out: control of Blumeria graminis f. sp. tritici (percent disease control compared to untreated)
In short: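 Wheat cv. Kanzler leaf segments on agar were sprayed with formulated compound in water, then inoculated with powdery mildew 1 day after application. Incubation was at 20° C, 60% rh, 24 h dark then 12 h light/12 h dark. Percent disease control versus untreated was scored 6-8 days after application.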

[2] = tested on: Puccinia recondita f. sp. tritici; assay: Puccinia recondita f. sp. tritici / wheat / leaf disc preventative (brown rust); format: in vivo; conditions: foliar, wheat leaf segments cv. Kanzler, inoculated 1 day after application, assessed 7-9 days after application, read-out: control of Puccinia recondita f. sp. tritici (percent disease control compared to untreated)
In short: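 Leaf segments of wheat cv. Kanzler on agar were sprayed with diluted formulated compound and inoculated with spores 1 day later. Kept at 19° C, 75% rh, 12 h light/12 h dark. Percent disease control versus untreated assessed 7-9 days after application.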

[3] = tested on: Puccinia recondita f. sp. tritici; assay: Puccinia recondita f. sp. tritici / wheat / leaf disc curative (brown rust); format: in vivo; conditions: foliar, wheat leaf segments cv. Kanzler, compound applied 1 day after inoculation, assessed 6-8 days after application, read-out: control of Puccinia recondita f. sp. tritici (percent disease control compared to untreated)
In short: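 Curative test: leaf segments of wheat cv. Kanzler on agar were inoculated with spores and held dark at 19 °C, 75% rh; formulated compound in water was applied 1 day after inoculation. Segments were then kept at 19 °C, 75% rh under 12 h light/12 h dark, and percent disease control versus untreated was scored 6-8 days after application.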

Phakopsora pachyrhizi = Phakopsora pachyrhizi / soybean / preventative (soybean rust); format: in vivo; conditions: foliar, soybean leaf disks, inoculated one day after application, assessed 12-14 days after application, read-out: control of Phakopsora pachyrhizi (percent disease control compared to untreated)
Method: Phakopsora pachyrhizi/Soybean/Preventative (Soybean Rust) Soybean leaf disks are placed on water agar in multiwell plates (24-well format) and sprayed with the formulated test compound diluted in water. One day after application leaf discs are inoculated by spraying a spore suspension on the lower leaf surface. After an incubation period in a climate cabinet of 24-36 hours in darkness at 20° C. and 75% rh leaf disc are kept at 20° C. with 12 h light/day and 75% rh. The activity of a compound is assessed as percent disease control compared to untreated when an appropriate level of disease damage appears in untreated check leaf disks (12-14 days after application).

Row | SMILES | pest or weed control at 200 ppm [1] | pest or weed control at 200 ppm [2] | melting point | pest or weed control at 200 ppm [3] | pest or weed control at 200 ppm (Phakopsora pachyrhizi)
1 | CCSCC(O)(c1cc(C)c(/N=C/N(C)CC)cc1OC)C(F)(F)F (stereo not shown) [E.073, N-ethyl-N′-[4-[1-(ethylsulfanylmethyl)-2,2,2-trifluoro-1-hydroxy-ethyl]-5-methoxy-2-methyl-phenyl]-N-methyl-formamidine] | ≥ 80% | ≥ 80% | 81 to 83 °C | – | –
2 | CCN(C)/C=N/c1cc(OC)c(C(O)(CS(=O)(=O)Cc2ccccc2)C(F)(F)F)cc1C (stereo not shown) [E.064, N′-[4-[1-(benzylsulfonylmethyl)-2,2,2-trifluoro-1-hydroxy-ethyl]-5-methoxy-2-methyl-phenyl]-N-ethyl-N-methyl-formamidine] | ≥ 80% | ≥ 80% | 56 to 58 °C | ≥ 80% | –
3 | CCN(C)C=Nc1cc(OC)c(C(O)(C/C(=N/OC)c2ccccc2)C(F)(F)F)cc1C (stereo not shown) [E.059, N-ethyl-N′-[4-[(3Z)-1-hydroxy-3-methoxyimino-3-phenyl-1-(trifluoromethyl)propyl]-5-methoxy-2-methyl-phenyl]-N-methyl-formamidine] | ≥ 80% | ≥ 80% | 105 to 107 °C | ≥ 80% | ≥ 80%
4 | CCN(C)/C=N/c1cc(OC)c(C(O)(C2=COCCC2)C(F)(F)F)cc1C (stereo not shown) [E.074, N′-[4-[1-(3,4-dihydro-2H-pyran-5-yl)-2,2,2-trifluoro-1-hydroxy-ethyl]-5-methoxy-2-methyl-phenyl]-N-ethyl-N-methyl-formamidine] | ≥ 80% | ≥ 80% | 115 to 116.6 °C | ≥ 80% | –
5 | CCN(C)/C=N/c1cc(OC)c(C(O)(CS(=O)(=O)c2ccccc2)C(F)(F)F)cc1C (stereo not shown) [E.065, N′-[4-[1-(benzenesulfonylmethyl)-2,2,2-trifluoro-1-hydroxy-ethyl]-5-methoxy-2-methyl-phenyl]-N-ethyl-N-methyl-formamidine] | ≥ 80% | ≥ 80% | 103 to 105 °C | ≥ 80% | –
6 | CC#CCOCCC(O)(c1cc(C)c(/N=C/N(C)CC)cc1OC)C(F)(F)F (stereo not shown) [E.049, N′-[4-[3-but-2-ynoxy-1-hydroxy-1-(trifluoromethyl)propyl]-5-methoxy-2-methyl-phenyl]-N-ethyl-N-methyl-formamidine] | ≥ 80% | ≥ 80% | – | ≥ 80% | ≥ 80%
7 | CCN(C)/C=N/c1cc(OC)c(C(O)(COC(C)c2ccccc2)C(F)(F)F)cc1C (stereo not shown) [E.028, N-ethyl-N′-[5-methoxy-2-methyl-4-[2,2,2-trifluoro-1-hydroxy-1-(1-phenylethoxymethyl)ethyl]phenyl]-N-methyl-formamidine] | ≥ 80% | ≥ 80% | – | ≥ 80% | ≥ 80%
8 | CCN(C)/C=N/c1cc(OC)c(C(O)(C2CCC(OC)CC2)C(F)(F)F)cc1C (stereo not shown) [E.075, N-ethyl-N′-[5-methoxy-2-methyl-4-[2,2,2-trifluoro-1-hydroxy-1-(4-methoxycyclohexyl)ethyl]phenyl]-N-methyl-formamidine] | ≥ 80% | ≥ 80% | – | ≥ 80% | ≥ 80%
9 | CCN(C)/C=N/c1cc(OC)c(C(O)(CC#N)C(F)(F)F)cc1C (stereo not shown) [E.061, N′-[4-[1-(cyanomethyl)-2,2,2-trifluoro-1-hydroxy-ethyl]-5-methoxy-2-methyl-phenyl]-N-ethyl-N-methyl-formamidine] | ≥ 80% | ≥ 80% | 86 to 88 °C | ≥ 80% | –
10 | C#CCOCC(O)(c1cc(C)c(/N=C/N(C)CC)cc1OC)C(F)(F)F (stereo not shown) [E.041, N-ethyl-N′-[5-methoxy-2-methyl-4-[2,2,2-trifluoro-1-hydroxy-1-(prop-2-ynoxymethyl)ethyl]phenyl]-N-methyl-formamidine] | ≥ 80% | ≥ 80% | – | ≥ 80% | ≥ 80%
11 | CCN(C)/C=N/c1cc(OC)c(C(O)(C/C(C)=N/OCc2ccccc2)C(F)(F)F)cc1C (stereo not shown) [E.081] | ≥ 80% | ≥ 80% | – | ≥ 80% | ≥ 80%
12 | CCN(C)/C=N/c1cc(OC)c(C(O)(CON=C(C)C)C(F)(F)F)cc1C (stereo not shown) [E.036, N-ethyl-N′-[5-methoxy-2-methyl-4-[2,2,2-trifluoro-1-hydroxy-1-[(isopropylideneamino)oxymethyl]ethyl]phenyl]-N-methyl-formamidine] | ≥ 80% | ≥ 80% | – | ≥ 80% | ≥ 80%
13 | CCN(C)/C=N/c1cc(OC)c(C(O)(CON=C2CCCCC2)C(F)(F)F)cc1C (stereo not shown) [E.037, N′-[4-[1-[(cyclohexylideneamino)oxymethyl]-2,2,2-trifluoro-1-hydroxy-ethyl]-5-methoxy-2-methyl-phenyl]-N-ethyl-N-methyl-formamidine] | ≥ 80% | ≥ 80% | – | ≥ 80% | ≥ 80%
14 | CCN(C)/C=N/c1cc(OC)c(C(O)(C(F)(F)F)C(C)(C)C#N)cc1C (stereo not shown) [E.060, N′-[4-[2-cyano-1-hydroxy-2-methyl-1-(trifluoromethyl)propyl]-5-methoxy-2-methyl-phenyl]-N-ethyl-N-methyl-formamidine] | ≥ 80% | ≥ 80% | 90 to 93 °C | ≥ 80% | ≥ 80%
15 | CCN(C)/C=N/c1cc(OC)c(C(O)(COCC2CCC2)C(F)(F)F)cc1C (stereo not shown) [E.011, N′-[4-[1-(cyclobutylmethoxymethyl)-2,2,2-trifluoro-1-hydroxy-ethyl]-5-methoxy-2-methyl-phenyl]-N-ethyl-N-methyl-formamidine] | ≥ 80% | ≥ 80% | – | ≥ 80% | ≥ 80%
